Data as given in PubChem BioAssay (NCI).
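In this assay, cells in 96-well plates receive the compound at five concentrations for 48 hours. Endpoints are linearly interpolated between the surrounding concentrations. TGI marks complete inhibition of growth.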

Key:
Experiment in all cases: NCI anticancer screen, dose series, 48 h
A549 NSCLC = system: A549 NSCLC
UACC-257 melanoma = system: UACC-257 melanoma
SN12C renal = system: SN12C renal
NCI-H460 lung = system: NCI-H460 lung
HCT-116 colon = system: HCT-116 colon
IGROV1 ovarian = system: IGROV1 ovarian
CCRF-CEM leukemia = system: CCRF-CEM leukemia
SNB-19 CNS = system: SNB-19 CNS
COLO 205 colon = system: COLO 205 colon
EKVX NSCLC = system: EKVX NSCLC
OVCAR-4 ovarian = system: OVCAR-4 ovarian
OVCAR-5 ovarian = system: OVCAR-5 ovarian
NCI-H23 lung = system: NCI-H23 lung
KM20L2 colon = system: KM20L2 colon
HT29 colon = system: HT29 colon
SK-MEL-28 melanoma = system: SK-MEL-28 melanoma
ACHN renal = system: ACHN renal
HCT-15 colon = system: HCT-15 colon
OVCAR-3 ovarian = system: OVCAR-3 ovarian
M19-MEL melanoma = system: M19-MEL melanoma
SF-539 CNS = system: SF-539 CNS
MALME-3M melanoma = system: MALME-3M melanoma
A498 renal = system: A498 renal
SK-MEL-2 melanoma = system: SK-MEL-2 melanoma
SW-620 colon = system: SW-620 colon
U251 CNS = system: U251 CNS
MOLT-4 leukemia = system: MOLT-4 leukemia
RPMI-8226 leukemia = system: RPMI-8226 leukemia
NCI-H522 lung = system: NCI-H522 lung
K-562 leukemia = system: K-562 leukemia
SK-OV-3 ovarian = system: SK-OV-3 ovarian
OVCAR-8 ovarian = system: OVCAR-8 ovarian
LXFL 529 NSCLC = system: LXFL 529 NSCLC
KM12 colon = system: KM12 colon
TK-10 renal = system: TK-10 renal
786-0 renal = system: 786-0 renal
DLD-1 colon = system: DLD-1 colon
NCI-H226 lung = system: NCI-H226 lung
LOX IMVI melanoma = system: LOX IMVI melanoma
XF 498 CNS = system: XF 498 CNS
HL-60(TB) leukemia = system: HL-60(TB) leukemia
DMS 114 small cell lung = system: DMS 114 small cell lung
UACC-62 melanoma = system: UACC-62 melanoma
SNB-75 CNS = system: SNB-75 CNS
HCC-2998 colon = system: HCC-2998 colon
HOP-62 NSCLC = system: HOP-62 NSCLC
UO-31 renal = system: UO-31 renal
M14 melanoma = system: M14 melanoma
SF-295 CNS = system: SF-295 CNS
DMS 273 small cell lung = system: DMS 273 small cell lung
SK-MEL-5 melanoma = system: SK-MEL-5 melanoma
SF-268 CNS = system: SF-268 CNS
CAKI-1 renal = system: CAKI-1 renal
HOP-92 NSCLC = system: HOP-92 NSCLC
SNB-78 CNS = system: SNB-78 CNS
RXF 393 renal = system: RXF 393 renal
HOP-18 NSCLC = system: HOP-18 NSCLC
SR leukemia = system: SR leukemia

COc1ccccc1N=NC(C(=O)c1ccccc1)C(=O)c1ccccc1
TGI (A549 NSCLC): 78.3 µM | TGI (UACC-257 melanoma): 89.2 µM | TGI (SN12C renal): 53.1 µM | TGI (NCI-H460 lung): 82.2 µM | TGI (HCT-116 colon): 28.6 µM | TGI (IGROV1 ovarian): > 100 µM | TGI (CCRF-CEM leukemia): 60 µM | TGI (SNB-19 CNS): 70.1 µM | TGI (COLO 205 colon): > 100 µM | TGI (EKVX NSCLC): 67.8 µM | TGI (OVCAR-4 ovarian): 74.2 µM | TGI (OVCAR-5 ovarian): 71.5 µM | TGI (NCI-H23 lung): 68.1 µM | TGI (KM20L2 colon): 58.2 µM | TGI (HT29 colon): 82.3 µM | TGI (SK-MEL-28 melanoma): > 100 µM | TGI (ACHN renal): 83.6 µM | TGI (HCT-15 colon): 47.6 µM | TGI (OVCAR-3 ovarian): > 100 µM | TGI (M19-MEL melanoma): 41.3 µM | TGI (SF-539 CNS): > 100 µM | TGI (MALME-3M melanoma): 88.9 µM | TGI (A498 renal): > 100 µM | TGI (SK-MEL-2 melanoma): 53.4 µM | TGI (SW-620 colon): > 100 µM | TGI (U251 CNS): > 100 µM | TGI (MOLT-4 leukemia): 60.4 µM | TGI (RPMI-8226 leukemia): 58.7 µM | TGI (NCI-H522 lung): 47 µM | TGI (K-562 leukemia): > 100 µM | TGI (SK-OV-3 ovarian): 89.4 µM | TGI (OVCAR-8 ovarian): > 100 µM | TGI (LXFL 529 NSCLC): > 100 µM | TGI (KM12 colon): > 100 µM | TGI (TK-10 renal): > 100 µM | TGI (786-0 renal): > 100 µM | TGI (DLD-1 colon): 54.9 µM | TGI (NCI-H226 lung): 35.9 µM | TGI (LOX IMVI melanoma): 51.1 µM | TGI (XF 498 CNS): 53.5 µM | TGI (HL-60(TB) leukemia): 33.7 µM | TGI (DMS 114 small cell lung): 40.5 µM | TGI (UACC-62 melanoma): 52.3 µM | TGI (SNB-75 CNS): 82.3 µM | TGI (HCC-2998 colon): 70.4 µM | TGI (HOP-62 NSCLC): 52.1 µM | TGI (UO-31 renal): 37.3 µM | TGI (M14 melanoma): 31.6 µM | TGI (SF-295 CNS): 87.6 µM | TGI (DMS 273 small cell lung): 57.9 µM | TGI (SK-MEL-5 melanoma): 54.5 µM | TGI (SF-268 CNS): > 100 µM | TGI (CAKI-1 renal): 77.3 µM

CCOC(=O)/C=C1/Oc2ccccc2C1(C)O (configuration not stated)
TGI (A549 NSCLC): > 100 µM | TGI (UACC-257 melanoma): > 100 µM | TGI (SN12C renal): > 100 µM | TGI (NCI-H460 lung): > 100 µM | TGI (HCT-116 colon): > 100 µM | TGI (IGROV1 ovarian): > 100 µM | TGI (CCRF-CEM leukemia): > 100 µM | TGI (SNB-19 CNS): > 100 µM | TGI (COLO 205 colon): > 100 µM | TGI (EKVX NSCLC): > 100 µM | TGI (OVCAR-4 ovarian): > 100 µM | TGI (OVCAR-5 ovarian): > 100 µM | TGI (NCI-H23 lung): > 100 µM | TGI (KM20L2 colon): > 100 µM | TGI (HOP-92 NSCLC): > 100 µM | TGI (HT29 colon): > 100 µM | TGI (SNB-78 CNS): > 100 µM | TGI (SK-MEL-28 melanoma): > 100 µM | TGI (ACHN renal): > 100 µM | TGI (HCT-15 colon): > 100 µM | TGI (OVCAR-3 ovarian): > 100 µM | TGI (RXF 393 renal): > 100 µM | TGI (M19-MEL melanoma): > 100 µM | TGI (MALME-3M melanoma): > 100 µM | TGI (A498 renal): > 100 µM | TGI (SK-MEL-2 melanoma): > 100 µM | TGI (HOP-18 NSCLC): > 100 µM | TGI (SW-620 colon): > 100 µM | TGI (U251 CNS): > 100 µM | TGI (MOLT-4 leukemia): > 100 µM | TGI (RPMI-8226 leukemia): > 100 µM | TGI (NCI-H522 lung): > 100 µM | TGI (K-562 leukemia): > 100 µM | TGI (SK-OV-3 ovarian): > 100 µM | TGI (OVCAR-8 ovarian): > 100 µM | TGI (LXFL 529 NSCLC): > 100 µM | TGI (KM12 colon): > 100 µM | TGI (TK-10 renal): > 100 µM | TGI (786-0 renal): > 100 µM | TGI (DLD-1 colon): > 100 µM | TGI (NCI-H226 lung): > 100 µM | TGI (LOX IMVI melanoma): > 100 µM | TGI (HL-60(TB) leukemia): > 100 µM | TGI (DMS 114 small cell lung): > 100 µM | TGI (UACC-62 melanoma): > 100 µM | TGI (SNB-75 CNS): > 100 µM | TGI (HCC-2998 colon): > 100 µM | TGI (HOP-62 NSCLC): > 100 µM | TGI (UO-31 renal): > 100 µM | TGI (M14 melanoma): > 100 µM | TGI (SF-295 CNS): > 100 µM | TGI (DMS 273 small cell lung): > 100 µM | TGI (SK-MEL-5 melanoma): > 100 µM | TGI (SF-268 CNS): > 100 µM | TGI (CAKI-1 renal): > 100 µM

CCC1(O)C(=O)OCc2c1cc1n(c2=O)Cc2cc3cc(OC)c(OC)cc3nc2-1 (configuration not stated)
TGI (A549 NSCLC): > 100 µM | TGI (UACC-257 melanoma): > 100 µM | TGI (SN12C renal): 87.4 µM | TGI (NCI-H460 lung): 28.5 µM | TGI (HCT-116 colon): > 100 µM | TGI (IGROV1 ovarian): 67.4 µM | TGI (CCRF-CEM leukemia): > 100 µM | TGI (SNB-19 CNS): 85.2 µM | TGI (COLO 205 colon): > 100 µM | TGI (EKVX NSCLC): > 100 µM | TGI (OVCAR-4 ovarian): > 100 µM | TGI (OVCAR-5 ovarian): > 100 µM | TGI (NCI-H23 lung): > 100 µM | TGI (KM20L2 colon): > 100 µM | TGI (HOP-92 NSCLC): > 100 µM | TGI (HT29 colon): > 100 µM | TGI (SK-MEL-28 melanoma): > 100 µM | TGI (ACHN renal): 37.3 µM | TGI (OVCAR-3 ovarian): > 100 µM | TGI (RXF 393 renal): 71.8 µM | TGI (SF-539 CNS): 35.2 µM | TGI (MALME-3M melanoma): > 100 µM | TGI (A498 renal): > 100 µM | TGI (HOP-18 NSCLC): > 100 µM | TGI (U251 CNS): 35 µM | TGI (MOLT-4 leukemia): > 100 µM | TGI (RPMI-8226 leukemia): > 100 µM | TGI (NCI-H522 lung): > 100 µM | TGI (K-562 leukemia): > 100 µM | TGI (SK-OV-3 ovarian): 89 µM | TGI (OVCAR-8 ovarian): > 100 µM | TGI (LXFL 529 NSCLC): > 100 µM | TGI (KM12 colon): > 100 µM | TGI (TK-10 renal): > 100 µM | TGI (786-0 renal): 54.2 µM | TGI (NCI-H226 lung): 88.6 µM | TGI (SR leukemia): 7.68 µM | TGI (LOX IMVI melanoma): > 100 µM | TGI (XF 498 CNS): > 100 µM | TGI (HL-60(TB) leukemia): > 100 µM | TGI (DMS 114 small cell lung): > 100 µM | TGI (SNB-75 CNS): 41 µM | TGI (HCC-2998 colon): > 100 µM | TGI (HOP-62 NSCLC): 8.38 µM | TGI (UO-31 renal): > 100 µM | TGI (M14 melanoma): > 100 µM | TGI (SF-295 CNS): > 100 µM | TGI (SK-MEL-5 melanoma): > 100 µM | TGI (SF-268 CNS): > 100 µM
